Results: ChEMBL document CHEMBL1201862, “PubChem BioAssay data set” (2004)
Calls of active or inactive are those of the source.

Tests used:
Beta-galactosidase = Beta-galactosidase (Escherichia coli, UniProt Q8VNN2); test: Dose response counterscreen for EBI2 assay utilizing the enzyme, b-galactosidase.; type: functional
BJ [1] = test: BJ-TERT fibroblast viability loss – cell-based, RAS-independent, luminescence, dose response (AID 1933); type: functional; conditions: Homo sapiens
[2] = biological target: T1, DNA repair protein RAD52 homolog (Homo sapiens, UniProt P43351); type: functional, biochemical
T1 sequence (P43351 whole entry): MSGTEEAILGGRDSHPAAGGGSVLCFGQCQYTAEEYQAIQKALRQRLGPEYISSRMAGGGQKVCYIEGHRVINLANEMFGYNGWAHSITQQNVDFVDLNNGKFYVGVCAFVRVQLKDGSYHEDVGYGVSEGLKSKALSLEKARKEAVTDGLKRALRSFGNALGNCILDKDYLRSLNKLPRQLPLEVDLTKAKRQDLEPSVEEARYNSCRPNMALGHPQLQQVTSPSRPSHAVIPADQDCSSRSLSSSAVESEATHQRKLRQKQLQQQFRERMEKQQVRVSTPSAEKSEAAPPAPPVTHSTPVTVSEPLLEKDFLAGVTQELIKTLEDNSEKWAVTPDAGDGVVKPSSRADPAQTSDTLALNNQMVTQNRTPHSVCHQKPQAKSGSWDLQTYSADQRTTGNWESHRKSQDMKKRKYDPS

BJ [3] = test: BJ-TERT-LT-ST fibroblast viability loss – cell-based, RAS-independent, luminescence, dose response (AID 1935); type: functional; conditions: Homo sapiens;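 also: BJ fibroblasts immortalized with TERT plus LT and ST oncogenes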
[4] = HepG2 cell cytotoxicity, dose response, cytotoxicity control for non-replicating M. tuberculosis project (AID 489018); type: functional; conditions: Mycobacterium tuberculosis
[5] = biological target: Dual specificity tyrosine-phosphorylation-regulated kinase 1A (Rattus norvegicus, UniProt Q63470); type: biochemical, Homo sapiens
[6] = biological target: T2, Heat shock factor protein 1 (Mus musculus, UniProt P38532); test: enhancement of HSF1-driven luciferase signal – cell-based, NIH3T3, luminescence, dose retest, confirmation (AID 435004); type: functional;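 also: stress induced by proteasome inhibitor MG132 added 30 min after compound; luciferase reporter driven by HSF1 response element in NIH3T3 cells; actives raise luminescence as potentiators of the MG132 stress response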
T2 sequence (P38532 whole entry): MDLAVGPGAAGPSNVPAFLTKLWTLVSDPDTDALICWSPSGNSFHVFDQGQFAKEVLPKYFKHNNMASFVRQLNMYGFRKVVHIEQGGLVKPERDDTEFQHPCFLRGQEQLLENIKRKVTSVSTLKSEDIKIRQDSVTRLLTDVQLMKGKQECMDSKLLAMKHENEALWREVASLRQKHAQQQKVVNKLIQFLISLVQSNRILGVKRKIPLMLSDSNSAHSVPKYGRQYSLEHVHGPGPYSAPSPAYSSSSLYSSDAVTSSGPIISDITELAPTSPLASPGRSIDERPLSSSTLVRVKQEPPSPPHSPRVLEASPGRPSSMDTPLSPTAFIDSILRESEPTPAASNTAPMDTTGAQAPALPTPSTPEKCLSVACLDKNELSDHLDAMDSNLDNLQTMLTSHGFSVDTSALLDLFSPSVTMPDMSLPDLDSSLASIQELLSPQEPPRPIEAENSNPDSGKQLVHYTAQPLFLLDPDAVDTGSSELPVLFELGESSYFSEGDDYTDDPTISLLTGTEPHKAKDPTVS

Melanocortin receptor 4 = Melanocortin receptor 4 (Homo sapiens, UniProt P32245); type: functional, cell-based;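 also: Cell-based assay with luminescence read-out, confirmatory dose-response testing for agonist activity of biased ligands at MC4R; human U2OS cells with tagged receptor and beta-arrestin; potency of agonists that increase receptor coupling to beta-arrestin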
Sequence of Melanocortin receptor 4 (P32245 whole entry): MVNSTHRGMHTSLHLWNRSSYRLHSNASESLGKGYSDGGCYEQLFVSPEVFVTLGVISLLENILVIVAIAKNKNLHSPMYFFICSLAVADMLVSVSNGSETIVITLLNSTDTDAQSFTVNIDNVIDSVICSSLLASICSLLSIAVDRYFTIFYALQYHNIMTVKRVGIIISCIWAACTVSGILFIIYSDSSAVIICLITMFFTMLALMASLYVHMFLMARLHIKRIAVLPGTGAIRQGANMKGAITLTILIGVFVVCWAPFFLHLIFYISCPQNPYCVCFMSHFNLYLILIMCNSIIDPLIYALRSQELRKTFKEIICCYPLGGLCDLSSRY

[7] = biological target: SWI/SNF-related matrix-associated actin-dependent regulator of chromatin subfamily A member 2 (Homo sapiens, UniProt P51531); test: Luminescence-based cell-based high throughput dose response assay to identify activators of the function of SWI/SNF related, matrix associated, actin dependent regulator of chromatin, subfamily a, member 2 (SMARCA2, BRM).; type: functional
Sequence of SWI/SNF-related matrix-associated actin-dependent regulator of chromatin subfamily A member 2 (P51531 whole entry): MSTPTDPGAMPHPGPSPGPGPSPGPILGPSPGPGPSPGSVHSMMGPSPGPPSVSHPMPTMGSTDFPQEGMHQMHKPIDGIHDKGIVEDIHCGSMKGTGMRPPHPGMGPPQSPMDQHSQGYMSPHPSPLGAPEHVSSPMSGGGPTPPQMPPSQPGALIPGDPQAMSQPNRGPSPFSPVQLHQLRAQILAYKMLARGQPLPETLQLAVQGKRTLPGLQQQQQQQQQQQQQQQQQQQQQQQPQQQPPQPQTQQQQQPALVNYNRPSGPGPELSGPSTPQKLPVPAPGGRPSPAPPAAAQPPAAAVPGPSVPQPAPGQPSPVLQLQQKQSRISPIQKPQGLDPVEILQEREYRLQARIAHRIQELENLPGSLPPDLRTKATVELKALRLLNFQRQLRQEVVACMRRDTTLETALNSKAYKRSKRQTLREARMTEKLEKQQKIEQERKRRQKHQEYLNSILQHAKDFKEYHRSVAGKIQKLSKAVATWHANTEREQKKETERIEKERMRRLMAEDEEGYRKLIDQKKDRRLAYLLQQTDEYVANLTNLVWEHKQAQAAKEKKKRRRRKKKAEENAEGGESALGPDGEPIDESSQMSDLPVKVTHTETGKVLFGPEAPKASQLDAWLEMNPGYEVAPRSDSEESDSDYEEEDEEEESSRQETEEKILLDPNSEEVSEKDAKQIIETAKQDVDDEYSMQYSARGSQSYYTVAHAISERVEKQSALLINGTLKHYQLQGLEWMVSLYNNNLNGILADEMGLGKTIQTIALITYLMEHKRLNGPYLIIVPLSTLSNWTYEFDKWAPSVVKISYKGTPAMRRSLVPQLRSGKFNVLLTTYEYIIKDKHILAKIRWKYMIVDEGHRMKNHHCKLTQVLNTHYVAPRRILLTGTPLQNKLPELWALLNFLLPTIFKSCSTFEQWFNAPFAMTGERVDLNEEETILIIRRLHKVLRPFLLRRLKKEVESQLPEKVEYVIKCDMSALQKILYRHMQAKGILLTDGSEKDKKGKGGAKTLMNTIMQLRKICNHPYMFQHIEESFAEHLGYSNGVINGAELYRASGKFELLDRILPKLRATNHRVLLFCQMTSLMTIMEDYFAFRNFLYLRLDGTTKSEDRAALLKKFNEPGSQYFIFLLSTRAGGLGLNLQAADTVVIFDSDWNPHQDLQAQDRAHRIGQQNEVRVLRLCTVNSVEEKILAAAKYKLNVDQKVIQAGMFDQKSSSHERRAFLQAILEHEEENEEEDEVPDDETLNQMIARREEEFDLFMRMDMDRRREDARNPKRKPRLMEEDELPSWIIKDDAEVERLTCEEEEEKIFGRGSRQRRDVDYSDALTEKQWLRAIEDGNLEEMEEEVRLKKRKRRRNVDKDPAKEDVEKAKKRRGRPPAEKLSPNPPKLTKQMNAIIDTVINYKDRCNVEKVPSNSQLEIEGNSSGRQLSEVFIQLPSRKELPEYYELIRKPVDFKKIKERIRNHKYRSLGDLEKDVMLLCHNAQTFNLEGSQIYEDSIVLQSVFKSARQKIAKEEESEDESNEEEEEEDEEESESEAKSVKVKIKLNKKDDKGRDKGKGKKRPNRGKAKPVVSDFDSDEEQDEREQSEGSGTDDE

[8] = THP-1 cell cytotoxicity, dose response, cytotoxicity control for non-replicating M. tuberculosis project (AID 489025); type: functional
[9] = biological target: Induced myeloid leukemia cell differentiation protein Mcl-1 (Homo sapiens, UniProt Q07820); type: functional
Sequence of Induced myeloid leukemia cell differentiation protein Mcl-1 (Q07820 whole entry): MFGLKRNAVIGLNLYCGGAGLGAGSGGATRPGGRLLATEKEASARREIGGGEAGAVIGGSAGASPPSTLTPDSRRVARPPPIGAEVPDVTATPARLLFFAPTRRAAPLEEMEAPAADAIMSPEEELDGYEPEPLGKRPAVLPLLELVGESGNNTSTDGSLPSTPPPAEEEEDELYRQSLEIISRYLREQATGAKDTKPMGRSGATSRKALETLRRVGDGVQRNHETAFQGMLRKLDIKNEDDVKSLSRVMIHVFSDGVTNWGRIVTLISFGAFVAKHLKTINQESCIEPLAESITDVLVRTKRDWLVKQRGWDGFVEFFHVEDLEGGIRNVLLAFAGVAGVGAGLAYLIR

[10] = DRD fibroblast viability loss – cell-based, non-viral oncogenic, luminescence, dose response (AID 1934); type: functional; conditions: Homo sapiens
[11] = Vero E6 cell cytotoxicity, dose response, cytotoxicity control for non-replicating M. tuberculosis project, secondary assay (AID 492998); type: functional, VeroE6; conditions: Vero C1008
SN12K1 = test: cells; type: functional; conditions: Homo sapiens
HEK293 [12] = test: cells; conditions: Homo sapiens
P388 = test: cells; type: functional; conditions: Mus musculus
[13] = tested on: Streptococcus sp. 'group A'; test: Streptococcus pyogenes SK(-)GAS viability under kanamycin – luminescence, BacTiterGlo, confirmation, counter-screen for streptokinase expression inhibitor project, dose response (AID 1900); type: functional, organism-based
INS1 = test: INS-1E survival protection against cytokine death – cell-based, luminescence, retest, dose response (AID 449756); type: functional; conditions: Rattus norvegicus;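 also: cell death triggered by IL-1 beta plus TNF-alpha plus IFN-gamma mixture; protective hits raise ATP signal compared with cytokine alone wells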
[14] = microbe, parasite or virus in culture; type: functional; conditions: Mycobacterium tuberculosis
[15] = Counterscreen for activators of the function of SWI/SNF related, matrix associated, actin dependent regulator of chromatin, subfamily a, member 2 (SMARCA2, BRM): Luminescence-based cell-based high throughput dose response assay to identify non-selective compounds using the VP16 reporter assay.; type: functional
HEK293 [16] = test: cells; conditions: Homo sapiens; remark: listed apart in the source
P388/ADR = test: cells; type: functional; conditions: Mus musculus
cells [17] = type: functional
Streptokinase A = biological target: T3, Streptokinase A (Streptococcus pyogenes serotype M1, UniProt P10520); test: viability-normalized secreted streptokinase activity reduction – plasminogen activation absorbance, OD405, dose response (AID 1914); type: functional, Streptococcus pyogenes M1 GAS;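 also: secreted streptokinase activity via plasminogen activation per viability signal from cell pellet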
T3 sequence (P10520 whole entry): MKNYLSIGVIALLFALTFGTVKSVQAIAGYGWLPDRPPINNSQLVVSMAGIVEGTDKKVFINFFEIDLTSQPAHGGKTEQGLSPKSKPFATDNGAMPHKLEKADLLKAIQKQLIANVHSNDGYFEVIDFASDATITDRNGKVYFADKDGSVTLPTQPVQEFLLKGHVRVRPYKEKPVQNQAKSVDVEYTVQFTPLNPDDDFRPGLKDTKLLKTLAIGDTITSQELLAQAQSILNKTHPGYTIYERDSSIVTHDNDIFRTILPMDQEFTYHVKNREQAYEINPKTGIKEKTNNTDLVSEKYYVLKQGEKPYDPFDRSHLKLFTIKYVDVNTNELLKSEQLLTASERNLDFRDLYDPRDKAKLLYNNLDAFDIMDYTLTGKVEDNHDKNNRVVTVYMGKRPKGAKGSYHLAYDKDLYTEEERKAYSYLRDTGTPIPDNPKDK

[18] = viability loss in HeLa cells – cytotoxicity control for MgcRacGAP inhibitor project, dose response (AID 624300); type: functional
BJ [19] = test: cells; type: functional, cell-based; conditions: Homo sapiens
[20] = NIH-3T3 fibroblast cytotoxicity, dose response, cytotoxicity control, cell-based, fluorescence, Alamar Blue, secondary assay (AID 2327); type: functional;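 also: NIH-3T3 mouse fibroblasts cultured with fluconazole at 8 µg/mL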
[21] = biological target: T4, Rac GTPase-activating protein 1 (Homo sapiens, UniProt Q9H0H5); test: blockers of MgcRacGAP-driven Rac1 GTP hydrolysis – biochemical, ADP Hunter fluorescence, primary and confirmatory, confirmation (AID 624330); type: functional
T4 sequence (Q9H0H5 whole entry): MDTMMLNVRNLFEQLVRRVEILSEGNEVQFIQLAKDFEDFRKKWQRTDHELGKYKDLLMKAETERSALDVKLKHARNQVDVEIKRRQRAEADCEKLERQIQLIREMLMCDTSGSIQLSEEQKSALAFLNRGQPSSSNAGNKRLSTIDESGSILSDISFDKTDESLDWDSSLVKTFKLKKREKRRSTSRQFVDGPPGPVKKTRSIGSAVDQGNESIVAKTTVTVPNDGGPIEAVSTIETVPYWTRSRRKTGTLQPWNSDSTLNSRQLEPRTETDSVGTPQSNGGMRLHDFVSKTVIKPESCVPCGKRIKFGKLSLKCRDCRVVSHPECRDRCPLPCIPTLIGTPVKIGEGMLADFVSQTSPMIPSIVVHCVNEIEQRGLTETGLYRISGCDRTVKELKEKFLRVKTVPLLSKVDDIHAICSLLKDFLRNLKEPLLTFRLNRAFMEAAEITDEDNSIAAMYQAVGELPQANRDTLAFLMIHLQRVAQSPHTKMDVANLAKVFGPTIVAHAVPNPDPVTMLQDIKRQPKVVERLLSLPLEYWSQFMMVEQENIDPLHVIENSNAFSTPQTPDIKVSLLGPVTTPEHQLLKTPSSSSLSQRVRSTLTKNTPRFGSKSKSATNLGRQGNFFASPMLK

[22] = fluconazole-exposed Candida albicans growth modulators – fluorescence, retest, confirmation (AID 2467); type: functional, cell-based
Streptococcus = test: GAS UMAA2166 growth inhibition – luminescence, BacTiterGlo, counter-screen for streptokinase expression inhibitor project, dose response (AID 1915); type: functional, organism-based;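 also: potency for reduction of bacterial viability or growth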
[23] = activation of miR-122 Renilla sensor silencing – cell-based, Huh7 psiCHECK-miR122, Renilla luciferase, cherry-picked, dose response (AID 651956); type: functional;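 also: huh7 hepatoma cells stably carrying a psiCHECK-2 miR-122 sensor plasmid; renilla luciferase signal reporting endogenous miR-122 activity after 48 h compound exposure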
[24] = general mammalian cell viability loss – inhibitor set, cherry-pick, set 2, cytotoxicity control for miR-122 modulator project, dose response (AID 720697); type: functional, cell-based
[25] = general mammalian cell viability loss – activator set, cherry-pick, cytotoxicity control for miR-122 modulator project, dose response (AID 720690); type: functional, cell-based;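 also: HEK293T human cells scored for general mammalian cytotoxicity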
[26] = HEK293T viability loss – cell-based, ATP luminescence, dry powder, Set6, cytotoxicity control, dose response (AID 743142); type: functional; conditions: HEK293
[27] = viability loss in A549 lung cancer cells – cell-based, CellTiter-Glo luminescence, dry powder, set 3, cytotoxicity control, dose response (AID 743146); type: functional
Galanin receptor type 3 = Galanin receptor type 3 (Homo sapiens, UniProt O60755); test: Fluorescence-based cell-based primary high throughput dose response assay to identify antagonists of the Galanin Receptor 3 (GalR3).; type: functional
cells [28] = type: functional, cell-based; conditions: HEK-CNG
[29] = biological target: Endoplasmic reticulum aminopeptidase 1 (Homo sapiens, UniProt Q9NZ08); test: inhibition of human ERAP1 enzyme activity – biochemical, cherry-pick, set 2, plate reader, dose response (AID 743314)
Sequence of Endoplasmic reticulum aminopeptidase 1 (Q9NZ08 whole entry, the tested form may be a part): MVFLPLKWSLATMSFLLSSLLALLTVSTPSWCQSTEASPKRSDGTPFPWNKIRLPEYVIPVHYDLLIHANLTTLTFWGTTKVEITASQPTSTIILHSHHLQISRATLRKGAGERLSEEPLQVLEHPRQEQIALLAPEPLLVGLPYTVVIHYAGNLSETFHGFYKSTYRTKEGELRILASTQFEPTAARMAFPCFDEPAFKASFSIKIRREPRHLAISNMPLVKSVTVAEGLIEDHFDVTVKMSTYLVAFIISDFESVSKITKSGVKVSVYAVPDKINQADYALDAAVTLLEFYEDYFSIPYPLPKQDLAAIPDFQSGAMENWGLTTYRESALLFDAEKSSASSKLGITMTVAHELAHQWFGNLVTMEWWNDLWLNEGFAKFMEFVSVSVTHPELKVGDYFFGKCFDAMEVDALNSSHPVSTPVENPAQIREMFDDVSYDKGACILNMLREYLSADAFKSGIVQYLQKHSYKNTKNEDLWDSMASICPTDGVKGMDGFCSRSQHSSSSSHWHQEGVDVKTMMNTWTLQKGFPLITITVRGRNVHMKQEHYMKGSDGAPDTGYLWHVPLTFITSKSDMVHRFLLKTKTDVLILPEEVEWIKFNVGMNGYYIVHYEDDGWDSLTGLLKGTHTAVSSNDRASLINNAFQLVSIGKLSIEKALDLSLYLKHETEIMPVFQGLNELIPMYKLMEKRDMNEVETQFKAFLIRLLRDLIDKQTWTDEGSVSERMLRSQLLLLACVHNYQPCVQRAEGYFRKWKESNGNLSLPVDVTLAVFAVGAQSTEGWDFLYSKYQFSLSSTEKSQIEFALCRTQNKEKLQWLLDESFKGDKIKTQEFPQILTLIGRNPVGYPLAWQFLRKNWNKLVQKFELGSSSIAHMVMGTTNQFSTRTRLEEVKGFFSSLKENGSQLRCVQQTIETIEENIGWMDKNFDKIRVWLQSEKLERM

[30] = biological target: Disintegrin and metalloproteinase domain-containing protein 17 (Homo sapiens, UniProt P78536); test: exosite inhibitors of ADAM17, dose response, biochemical (AID 743260)
Sequence of Disintegrin and metalloproteinase domain-containing protein 17 (P78536 whole entry, the tested form may be a part): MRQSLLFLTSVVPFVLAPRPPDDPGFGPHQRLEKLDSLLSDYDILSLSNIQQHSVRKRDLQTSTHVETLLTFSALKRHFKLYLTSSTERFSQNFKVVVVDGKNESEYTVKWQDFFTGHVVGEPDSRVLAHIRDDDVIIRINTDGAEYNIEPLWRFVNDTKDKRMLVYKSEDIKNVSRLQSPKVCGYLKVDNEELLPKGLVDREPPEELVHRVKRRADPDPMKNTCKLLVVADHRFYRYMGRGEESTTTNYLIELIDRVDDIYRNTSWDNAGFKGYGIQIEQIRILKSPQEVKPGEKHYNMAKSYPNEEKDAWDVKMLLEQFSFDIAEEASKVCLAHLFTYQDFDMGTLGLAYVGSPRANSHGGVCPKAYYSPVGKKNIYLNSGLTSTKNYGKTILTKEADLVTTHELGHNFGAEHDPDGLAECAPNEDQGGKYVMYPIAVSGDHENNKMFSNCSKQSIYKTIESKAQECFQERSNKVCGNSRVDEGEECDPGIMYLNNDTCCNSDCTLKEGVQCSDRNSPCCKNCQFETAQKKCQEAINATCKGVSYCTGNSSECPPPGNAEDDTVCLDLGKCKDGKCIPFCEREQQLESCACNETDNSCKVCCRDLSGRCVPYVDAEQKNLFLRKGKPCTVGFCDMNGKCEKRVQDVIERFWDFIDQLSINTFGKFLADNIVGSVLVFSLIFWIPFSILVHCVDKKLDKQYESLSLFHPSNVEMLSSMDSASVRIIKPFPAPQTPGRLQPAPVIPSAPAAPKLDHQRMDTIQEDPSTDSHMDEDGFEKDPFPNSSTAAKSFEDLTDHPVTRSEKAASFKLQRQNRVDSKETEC

[31] = inhibition of ADAM10 peptide cleavage – biochemical, FRET peptide substrate, recombinant human ADAM10, selectivity assay for ADAM17 exosite inhibitor project, dose response (AID 743259);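 also: ADAM10 enzyme cleaving a FRET peptide substrate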

Sequence of Beta-galactosidase (Q8VNN2 whole entry): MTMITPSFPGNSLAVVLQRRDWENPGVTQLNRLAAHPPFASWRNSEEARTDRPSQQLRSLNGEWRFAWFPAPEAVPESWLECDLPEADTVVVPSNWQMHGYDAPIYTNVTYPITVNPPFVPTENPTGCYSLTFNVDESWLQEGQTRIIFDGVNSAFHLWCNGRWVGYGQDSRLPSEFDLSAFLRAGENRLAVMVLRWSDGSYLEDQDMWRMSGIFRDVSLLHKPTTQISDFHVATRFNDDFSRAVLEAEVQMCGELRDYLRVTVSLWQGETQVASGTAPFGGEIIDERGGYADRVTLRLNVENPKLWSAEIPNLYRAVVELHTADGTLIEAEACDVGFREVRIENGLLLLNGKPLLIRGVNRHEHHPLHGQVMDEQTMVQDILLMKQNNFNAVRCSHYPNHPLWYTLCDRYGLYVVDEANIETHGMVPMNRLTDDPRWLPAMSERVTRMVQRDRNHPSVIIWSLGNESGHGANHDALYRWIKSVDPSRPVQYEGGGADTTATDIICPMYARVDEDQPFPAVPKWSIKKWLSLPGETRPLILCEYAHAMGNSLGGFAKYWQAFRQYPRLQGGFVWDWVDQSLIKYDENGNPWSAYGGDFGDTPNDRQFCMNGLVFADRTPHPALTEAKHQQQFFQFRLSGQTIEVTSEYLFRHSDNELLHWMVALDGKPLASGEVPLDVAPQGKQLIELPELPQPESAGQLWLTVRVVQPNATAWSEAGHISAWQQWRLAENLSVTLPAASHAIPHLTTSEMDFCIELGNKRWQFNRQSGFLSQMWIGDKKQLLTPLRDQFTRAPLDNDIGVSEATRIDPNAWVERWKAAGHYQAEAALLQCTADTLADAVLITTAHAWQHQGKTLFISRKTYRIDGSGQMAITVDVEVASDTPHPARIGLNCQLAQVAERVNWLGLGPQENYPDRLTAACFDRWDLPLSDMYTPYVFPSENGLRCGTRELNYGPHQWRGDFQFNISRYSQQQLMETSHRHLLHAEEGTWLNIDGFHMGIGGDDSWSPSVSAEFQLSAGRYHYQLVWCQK

## COc1ccccc1N1CCN(C(=O)c2cc3c(s2)-c2ccccc2OC3)CC1
Beta-galactosidase
  IC50: > 80 µM (inactive)

## COc1ccc2[nH]c3c(C)c4ccncc4c(C)c3c2c1
BJ [1]
  EC50: 3.65 µM (inconclusive)
[2]
  AC50: < 11.1 µM (active)
BJ [3]
  EC50: 4.95 µM (inconclusive)
[4]
  CC50: 8.79 µM (active)
[5]
  AC50: 2.86 µM (active)
[6]
  EC50: > 260 µM (inconclusive)
Melanocortin receptor 4
  EC50: > 89.3 µM (inactive)
[7]
  EC50: > 3.38 µM (active)
[8]
  CC50: 2.94 µM (active)
[9]
  IC50: > 54 µM (active)
[10]
  EC50: 2.51 µM (active)
[11]
  CC50: 930 nM (active)
SN12K1
  GI50: 245 nM (active)
HEK293 [12]
  EC50: > 59.7 µM (inactive)
P388
  GI50: 239 nM (active)
[13]
  EC50: 2.52 µM (active)
INS1
  AC50: 1.93 µM (active)
[14]
  CC50: 838 nM (active)
[15]
  EC50: > 91.3 µM (inactive)
HEK293 [16]
  EC50: > 59.7 µM (inactive)
P388/ADR
  GI50: 439 nM (active)
Cells [17]
  IC50: 370 nM (active)
Streptokinase A
  EC50: > 150 µM (not active)
[18]
  CC50: 31.2 µM (active)
BJ [19]
  EC50: 9.28 µM (inconclusive)
[20]
  EC50: 4.36 µM (inconclusive)
[21]
  IC50: 28.8 µM (active)
[22]
  EC50: 698 nM (active)
Streptococcus
  EC50: 8.86 µM (active)

## C[C@H](CO)N1C[C@H](C)[C@H](CN(C)CC2CCCCC2)Oc2ccc(NC(=O)Nc3ccc(C(F)(F)F)cc3)cc2C1=O
[23]
  AC50: 31.5 µM (active)
[24]
  AC50: 15.1 µM (active)
[25]
  AC50: 17.1 µM (active)

## O=C(CCNC(=O)c1cccc(Cl)c1)N[C@@H]1CCCc2ccccc21
[26]
  AC50: 9.96 µM (active)
[27]
  AC50: > 52 µM (inactive)

## CC1(CSc2ccccc2)CC(=O)N1 (stereo not given)
Galanin receptor type 3
  IC50: > 29.9 µM (inactive)
Cells [28]
  EC50: > 29.9 µM (inactive)

## CC1CCN(Cc2cc(=O)oc3cc(O)c(Cl)cc23)CC1
[29]
  AC50: 6.33 µM (active)

## CCOC(=O)CC(SP1(=S)OCC2(CCCCO2)C(C2CCCCO2)O1)C(=O)OCC (stereo not given)
[30]
  IC50: 32.8 µM (inactive)
[31]
  IC50: 56.3 µM (inactive)
